# Results reported in patent publication US10278965B2, “Method of detecting cancer stem cell, method of screening cancer stem cell, and method of inhibiting cancer stem cell” (CANON KABUSHIKI KAISHA, priority 2012, dated 2019).
# Tests used:
# [1] = Measurement of fluorescent property of compound; type: physicochemical; details: 5 μM DMSO solution
# Description: The excitation wavelength and fluorescence wavelength of the compound were measured by a FL4500 spectrofluorometric measuring machine manufactured by Hitachi High-Technologies Corporation.
# [2] = system: Prostatic cancer cells, PC-3; experiment: Cancer cell inhibitory (growth suppressive) action against prostatic cancer cells, CellTiter-Glo viable cell count; type: cell-based; details: PC-3, 10 μg/mL, 24 hours
# [3] = system: Human chronic myelocytic leukemia cells, K562, ALDH (+) fraction (cancer stem cells); experiment: Cancer stem-cell selective inhibitory action against chronic myelocytic leukemia cells, ALDH (+) fraction; type: cell-based; details: 24 hours
# [4] = system: K562 ALDH (+) cells; experiment: Cancer stem-cell selective staining, ALDH (+) cells; type: cell-based, Human; details: cells of Experimental Examples 39, 42 and 45 (1 μg/ml, cultured for 24 hours), fluorescent microscope
# Description: (§1) The cells cultured for 24 hours in each of Experimental Examples 39, 42 and 45 were subjected to nuclear staining with Hoechest33342 (manufactured by Dojindo Laboratories) and a fluorescent image observed under AXIOVERT200M inverted fluorescent microscope (manufactured by Carl Zeiss) was photographed.
# [5] = system: K562 ALDH (−) cells; experiment: Cancer stem-cell selective staining, ALDH (−) cells; type: cell-based, Human; details: cells of Experimental Examples 39, 42 and 45 (1 μg/ml, cultured for 24 hours), fluorescent microscope
# Description: as §1
# [6] = system: K562-KOr human chronic myelocytic leukemia cells, ALDH (+) fraction, transplanted to zebra young fish; experiment: Inhibitory action in cancer stem cells transplanted animal, ALDH (+) fraction; type: in vivo; details: for Growth suppression rate (ALDH(+) versus ALDH(−)): zebra young fish transplanted with K562-KOr fractions; for ALDH(+) inhibition rate 100×(1−F1/F0): zebra young fish, 0.5 μm in breeding water added 24 hours after transplantation, fluorescent intensity
# From the text: (§2) From cell strain K562-KOr, which is a strain of human chronic myelocytic leukemia cells having fluorescent protein Kusabira-Orange constantly expressed, a fraction (ALDH (+)) containing 80% or more of cancer stem cells was extracted by use of a cancer stem cell marker, ALDEFLUOR reagent (manufactured by VERITAS Corporation) and FACSAria flow cytometry (manufactured by Nippon Becton, Dickinson and Company). The ALDH (+) fraction and a ALDH (−) fraction of general cancer cells were transplanted separately to zebra young fish (MieKomachi lineage, 2 days after fertilization) and the fish were raised in a 32° C. environment. Furthermore, 24 hours after transplantation, Compound (16) was added to breeding water so as to obtain a final concentration of […] and fish were raised for two days in a 32° C. environment.
# (§3) Cells transplanted to the zebra young fish were observed under MZ16F fluorescent stereoscopic microscope (manufactured by Leica Microsystems) and a fluorescent image of the cells after 24 hours was photographed and then fluorescent intensity was quantified.
# As a reference, the fluorescent intensity of cells, which were cultured in the same operation method as above in a medium containing a 0.1% DMSO solution in place of Compound (16), was used.
# The numerical value of fluorescent intensity was obtained from a fluorescent image taken in the same manner as in Experimental Example 74 except that Compound (16) of Experimental Example 74 was changed to Imatinib.
# . The inhibition rate herein was obtained according to the expression: 100×(1−F1/F0), where the fluorescent intensity of cells when a test substance was added is represented by F1, and the fluorescent intensity of cells when a reference substance (DMSO) was added is represented by F0.
# [7] = system: K562-KOr human chronic myelocytic leukemia cells, ALDH (−) fraction, transplanted to zebra young fish; experiment: Inhibitory action in cancer cells transplanted animal, ALDH (−) fraction; type: in vivo; details: 0.5 μm in breeding water added 24 hours after transplantation, fluorescent intensity
# From the text: as §2, §3
# As a reference, the fluorescent intensity of cells, which were cultured in the same operation method as above in a medium containing a 0.1% DMSO solution in place of Compound (16), was used. […]
# [8] = system: Human pancreas cancer cells, KLM-1; experiment: Cancer cell inhibitory (growth suppressive) action against pancreatic cancer cells, CellTiter-Glo viable cell count; details: KLM-1, 10 μg/mL, 24 hours
# Description: Human pancreas cancer cells, KLM-1, were pre-cultured in RPMI1640 medium containing 10% FBS at 37° C. in a 5% CO2 ambient. Thereafter, 4,000 cells were seeded per well of a 96-well plate and further cultured for 24 hours. […] The cultured cells were analyzed for viable cell count according to CellTiter-Glo Luminescent Cell Viability Assay (manufactured by Promega KK.).
# Evaluation of cancer cell inhibition against the pancreatic cancer cells (KLM-1) (growth suppression) was made based on the following criteria. Note that the growth rate used in Examples refers to the rate (expressed by percentage) of viable cell count after culture relative to the number of cells at the initiation of cell culture.
# [9] = system: Human chronic myelocytic leukemia cells, K562, ALDH (−) fraction (general cancer cells); experiment: Cancer stem-cell selective inhibitory action against chronic myelocytic leukemia cells, ALDH (−) fraction; type: cell-based; details: K562
# Description: Human chronic myelocytic leukemia cells, K562, were pre-cultured in RPMI1640 medium containing 10% FBS at 37° C. in a 5% CO2 ambient. Then, a fraction containing 80% or more of cancer stem cells was extracted by use of a cancer stem cell marker, ALDEFLUOR reagent (manufactured by VERITAS Corporation) and FACSAria flow cytometry (manufactured by Nippon Becton, Dickinson and Company). […] The cultured cells were analyzed for viable cell count according to CellTiter-Glo Luminescent Cell Viability Assay (manufactured by Promega KK.). […] Note that hereinafter, an ALDEFLUOR reagent positive fraction (deemed as cancer stem cells) is represented by ALDH (+), whereas an ALDEFLUOR reagent negative fraction (not deemed as cancer stem cells) is represented by ALDH (−), in some cases.
# Further, the growth suppressive effect of cancer stem cells was evaluated based on the following criteria. Note that the growth rate in Examples is a value obtained by dividing viable cell count after culture by the number of cells at the initiation time of culture.
# [10] = system: KLM1-KOr cells, ALDH (+) fraction, transplanted to zebra young fish; experiment: Cancer metastasis suppressive effect in cancer cell metastatic foci (region within 300 to 450 μm from a transplanted tumor); type: in vivo; details: 72 hours later, region within 300 to 450 μm from transplanted tumor
# Description: From cell strain […], in which KLM1 cells have fluorescent protein Kusabira-Orange constantly expressed, a fraction (ALDH (+)) containing 80% or more of cancer stem cells was extracted with ALDEFLUOR reagent (manufactured by VERITAS Corporation) and FACSAria flow cytometry (manufactured by Nippon Becton, Dickinson and Company). The extracted KLM1-KOr cells were transplanted to zebra young fish (MieKomachi lineage, 2 days after fertilization) and the fish were raised in a 32° C. environment. Furthermore, 24 hours after transplantation, Compound (26) (745 μmol/KgBW) was administered to yolk sac.
# 72 hours later, cells transplanted to the zebra young fish were observed under MZ16F fluorescent stereoscopic microscope (manufactured by Leica Microsystems) and a fluorescent image of the region within 300 to 450 μm from a transplanted tumor was photographed and then fluorescent intensity was quantified.
# As a reference, the fluorescent intensity of cells, which were cultured in the same operation method as above in a medium containing a 0.1% DMSO solution in place of Compound (26), was used.
# Fluorescent images were photographed in the same manner as in Experimental Example 26 except that Imatinib and Dasatinib were respectively used in place of the compound (26) in Experimental Example 75.
# The inhibition rate herein was obtained according to the expression: 100×(1−F1/F0), where the fluorescent intensity of cells when a test substance was added is represented by F1, and the fluorescent intensity of cells when a reference substance (DMSO) was added is represented by F0.
compound,measurement,setting,value
CCCCCN1/C(=C\C=C\c2oc3ccccc3[n+]2CCCCC)Oc2ccccc21 [Compound 16],Excitation wavelength λex,[1],474 nm
same,Fluorescence wavelength λem,[1],509 nm
same,Cancer cell growth rate (%),[2],8.4%
same,Evaluation (cancer cell growth rate),[2],A (Cancer cell growth rate is less than 20%)
same,ALDH(+) Superiority evaluation,"[3]; K562, 0.05 μg/ml",B (The value of the growth rate of ALDH (+)/the growth rate of ALDH (−) is 0.8 or more and less than 0.95)
same,ALDH(+)/ALDH(−),"[3]; K562, 0.05 μg/ml",0.87
same,ALDH(+) Superiority evaluation,"[3]; K562, 0.5 μg/ml",A (The value of the growth rate of ALDH (+)/the growth rate of ALDH (−) is less than 0.8)
same,ALDH(+)/ALDH(−),"[3]; K562, 0.5 μg/ml",0.70
same,ALDH(+) Superiority evaluation,"[3]; K562, 1 μg/ml",A (The value of the growth rate of ALDH (+)/the growth rate of ALDH (−) is less than 0.8)
same,ALDH(+)/ALDH(−),"[3]; K562, 1 μg/ml",0.47
same,ratio of ALDH (+) cells stained,[4],99.5%
same,ratio of ALDH (−) cells stained,[5],18.6%
same,Growth suppression rate (ALDH(+) versus ALDH(−)),[6],ALDH(+) is high
same,ALDH(+) inhibition rate 100×(1−F1/F0),[6],95.0
same,ALDH(−) inhibition rate 100×(1−F1/F0),[7],82.0
same,Cancer cell growth rate (%),[8],2.0%
same,Evaluation (cancer cell growth rate),[8],A (Cancer cell growth rate is less than 20%)
"Cc1ccc(NC(=O)c2ccc(CN3CCN(C)CC3)cc2)cc1Nc1nccc(-c2cccnc2)n1 [Imatinib, reference compound]",ALDH(+) Superiority evaluation,"[3]; K562, 0.12 μg/ml",C (The value of the growth rate of ALDH (+)/the growth rate of ALDH (−) is 0.95 or more)
same,ALDH(+)/ALDH(−),"[3]; K562, 0.12 μg/ml",1.47
same,ALDH(+) Superiority evaluation,"[3]; K562, 0.24 μg/ml",C (The value of the growth rate of ALDH (+)/the growth rate of ALDH (−) is 0.95 or more)
same,ALDH(+)/ALDH(−),"[3]; K562, 0.24 μg/ml",1.48
same,ALDH(+) Superiority evaluation,"[3]; K562, 0.35 μg/ml",C (The value of the growth rate of ALDH (+)/the growth rate of ALDH (−) is 0.95 or more)
same,ALDH(+)/ALDH(−),"[3]; K562, 0.35 μg/ml",1.51
same,ALDH(+) Superiority evaluation,"[3]; K562, 0.47 μg/ml",C (The value of the growth rate of ALDH (+)/the growth rate of ALDH (−) is 0.95 or more)
same,ALDH(+)/ALDH(−),"[3]; K562, 0.47 μg/ml",1.63
same,ALDH(+) Superiority evaluation,"[3]; K562, 0.59 μg/ml",C (The value of the growth rate of ALDH (+)/the growth rate of ALDH (−) is 0.95 or more)
same,ALDH(+)/ALDH(−),"[3]; K562, 0.59 μg/ml",2.80
same,inhibitory effect against general cancer cells,[9],an inhibitory effect against general cancer cells was observed
same,Growth suppression rate (ALDH(+) versus ALDH(−)),[6],ALDH(−) is high
same,ALDH(+) inhibition rate 100×(1−F1/F0),[6],60.0
same,ALDH(−) inhibition rate 100×(1−F1/F0),[7],80.0
same,"Inhibition rate 100×(1−F1/F0), metastatic foci",[10]; administered to yolk sac 24 hours after transplantation (Compound (26) 745 μmol/KgBW),60
same,"Evaluation (inhibition rate, metastatic foci)",[10],B (Inhibition rate is 50 or more and less than 70)
